The target of this assay is T1, ADAMTS13 (Homo sapiens, UniProt Q76LX8).
T1 sequence (Q76LX8 75-1427): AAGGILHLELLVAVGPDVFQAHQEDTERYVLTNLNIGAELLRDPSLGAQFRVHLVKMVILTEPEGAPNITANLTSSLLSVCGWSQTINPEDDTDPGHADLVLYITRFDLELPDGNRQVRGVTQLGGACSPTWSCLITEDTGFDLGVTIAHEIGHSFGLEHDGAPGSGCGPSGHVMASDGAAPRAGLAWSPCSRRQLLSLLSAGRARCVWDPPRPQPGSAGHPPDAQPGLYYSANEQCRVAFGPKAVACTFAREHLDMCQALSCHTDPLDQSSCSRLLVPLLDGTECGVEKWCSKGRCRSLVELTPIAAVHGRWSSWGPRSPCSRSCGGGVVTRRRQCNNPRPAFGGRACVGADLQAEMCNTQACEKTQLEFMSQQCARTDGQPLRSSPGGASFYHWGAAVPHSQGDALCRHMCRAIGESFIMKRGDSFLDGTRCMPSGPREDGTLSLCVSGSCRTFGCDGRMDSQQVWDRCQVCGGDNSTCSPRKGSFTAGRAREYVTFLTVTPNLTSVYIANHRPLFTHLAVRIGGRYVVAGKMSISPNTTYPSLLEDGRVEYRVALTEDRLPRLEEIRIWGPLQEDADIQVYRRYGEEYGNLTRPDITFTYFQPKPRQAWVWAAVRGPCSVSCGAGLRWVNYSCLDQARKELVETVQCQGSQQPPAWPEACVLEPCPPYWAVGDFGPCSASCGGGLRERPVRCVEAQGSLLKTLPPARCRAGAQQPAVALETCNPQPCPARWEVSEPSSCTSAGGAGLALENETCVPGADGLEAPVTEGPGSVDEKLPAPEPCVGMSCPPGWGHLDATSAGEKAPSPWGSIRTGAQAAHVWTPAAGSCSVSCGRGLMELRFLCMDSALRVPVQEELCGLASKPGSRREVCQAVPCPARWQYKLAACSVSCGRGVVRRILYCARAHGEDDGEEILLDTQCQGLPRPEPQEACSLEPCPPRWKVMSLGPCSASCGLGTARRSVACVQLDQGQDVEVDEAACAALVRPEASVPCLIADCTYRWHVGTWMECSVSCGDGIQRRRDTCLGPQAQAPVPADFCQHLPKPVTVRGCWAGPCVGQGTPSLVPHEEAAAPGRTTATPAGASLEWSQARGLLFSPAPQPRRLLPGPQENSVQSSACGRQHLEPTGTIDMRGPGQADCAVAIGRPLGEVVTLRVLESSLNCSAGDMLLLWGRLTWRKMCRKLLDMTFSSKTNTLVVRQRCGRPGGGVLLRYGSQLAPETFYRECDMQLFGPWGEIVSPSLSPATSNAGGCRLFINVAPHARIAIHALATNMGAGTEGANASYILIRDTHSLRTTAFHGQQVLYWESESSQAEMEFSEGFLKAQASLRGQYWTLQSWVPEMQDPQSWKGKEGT
Kind of assay: Fluorogenic ADAMTS13 activity assay, signal and sensitivity compared between substrates. The assay is classed as biochemical. Set-up: from tissue; host or cells: human plasma (TTP patients, healthy controls). The method, then:
In these experiments, the FRETS-rVWF71 substrate was utilized in a microtiter format (FIG. 2), which is compatible with fluorescence plate readers that are supported by laboratory equipment suppliers and available in many clinical hemostasis laboratories, such as the BIO-TEK FLx800 Fluorometer from DiaPharma (West Chester, Ohio) or Technoclone (Vienna). Reactions were performed in 200 μL 5 mM Bis-Tris, pH 6, 25 mM CaCl2, at room temperature with added plasma as shown (FIG. 2). Fluorescence was monitored in a Victor^2 V microplate reader (Perkin Elmer Life Sciences, Boston, Mass.) with 638 nm excitation filter and 658 nm emission filter.
Using 1 μM substrate with varying amounts of plasma or serum and optimal filters for each substrate, ΔF/min for VWF-rFRETS71 is 8-fold greater compared to VWF-FRETS73. In addition, assays with VWF-rFRETS71 are linear with time and linear with enzyme up to >95% serum or plasma added, with no significant background fluorescence or interference from blood constituents. The combination of stronger fluorescence signal and compatibility with undiluted plasma make FRETS-rVWF71 ˜250-fold more sensitive than FRETS-VWF73.
Assays were performed at 30° C. Samples (100 μL) of plasma or serum, diluted as necessary in assay buffer, were pipetted in duplicate in 96 well white microplates (Optiplate-96, PerkinElmer, Waltham, Mass.). Reaction was initiated by addition of 100 μL substrate in assay buffer. Cleavage of FRETS-rVWF71 was detected as an increase in fluorescence compared to control reactions without added enzyme at 2 min intervals using a Victor^2V Multilabel Counter (PerkinElmer, Waltham, Mass.) or Synergy H1 Hybrid Multi-Mode Microplate Reader (Biotek, Winooski, Vt.) equipped with 635±10 nm excitation and 660±10 nm emission filters. Initial velocities were determined by fitting progress curves to the polynomial ΔF=A+Bt+Ct^2, where ΔF is the change in fluorescence, t is time, A is the y-intercept, B is the initial velocity (slope), and the term Ct^2 accounts for any decline in velocity due to substrate consumption or photobleaching.
ADAMTS13 assays with the FRETS-VWF73 substrate (Kokame, K., et al. Br. J. Haematol. 129:93-100, 2005) (Peptide International, Louisville, Ky.) were performed according to the manufacturer's instructions. Hemoglobin was prepared by hypotonic lysis of red blood cells from a voluntary donor and quantified with Drabkin's reagent (Sigma, St. Louis, Mo.).
Results with FRETS-rVWF71 and FRETS-VWF73 assayed under standard conditions (Kokame, K., et al. Br. J. Haematol. 129:93-100, 2005) correlated well with an inter-assay CV of 3.8%. Using 1 μM substrate and 5 μL PNP, the change in fluorescence (ΔF/min) for FRETS-rVWF71 (50 mM HEPES, pH 7.4, 150 mM NaCl) was 8-fold greater than for FRETS-VWF73 (5 mM Bis-Tris, pH 6).

Where “and” joins values, the source holds several entries; their conditions need not be identical. Equal entries are not always repeated. * marks the point of attachment. X1 = CC1(C)C(/C=C/C2=C(Cl)C(=C/C=C3/N(CCCCCC(=O)*)c4ccc5cc(S(=O)(=O)O)ccc5c4C3(C)C)/CCC2)=[N+](CCCS(=O)(=O)[O-])c2ccc(N(CCCS(=O)(=O)O)CCCS(=O)(=O)O)cc21; X2 = CC(C)(C)c1cc(/C=C/C=C2\N(CCCS(=O)(=O)O)c3ccc(S(=O)(=O)O)cc3C2(C)CCCC(=O)CCN2C(=O)CC(*)C2=O)c2ccc(N(CCCS(=O)(=O)[O-])CCCS(=O)(=O)O)cc2[o+]1

As for “X1-GQAPNLVYMVTGC(X2)PASDEIRRLPGDIQVVPIGVGPNANVQELERIGWPNAPILIQDFETLPREAPDLVLQR [FRETS-rVWF71]”, the “change in fluorescence (ΔF/min) greater than for FRETS-VWF73” value (1 μM substrate, 5 μL PNP, FRETS-rVWF71 in 50 mM HEPES pH 7.4, 150 mM NaCl, FRETS-VWF73 in 5 mM Bis-Tris pH 6) turned out to be 8 fold. The “ΔF/min greater compared to FRETS-VWF73” value (1 μM substrate, varying amounts of plasma or serum, optimal filters for each substrate) was determined as 8 fold. Further, the “assay sensitivity relative to FRETS-VWF73” value (equal concentrations of plasma as the enzyme source) is listed as “approximately 8 fold”. In addition, the “overall sensitivity relative to FRETS-VWF73” value (stronger fluorescence signal combined with undiluted plasma) was ~250 fold and 240 fold. In addition, the “further increase of sensitivity relative to FRETS-VWF73” value (use in undiluted plasma) worked out at 30 fold.
